Source: patent US6043024A, “Use of one-dimensional nuclear magnetic resonance to identify ligands to target biomolecules” (Abbott Laboratories, priority 1997, dated 2000)
pKd: −log10 of the molar value. Read-outs that look alike come from different tables or passages of the source.

How the values were obtained:
[1] = molecular target: T1, FKBP (Homo sapiens, UniProt P62942); assay: Screening for binding using T2-filtered one-dimensional proton NMR spectroscopy; settings: FKBP 50 μM, spin-lock 200 ms, pH 6.5, 300K
Protocol: For all experiments, the T2 -filter spin-lock time was 200 ms with a spin-echo delay of 1 ms, the concentration of compound 1 was 100 μM, the concentration of FKBP was 50 μM, and the buffer was 50 mM PO4, 100 mM NaCl, pH 6.5 (95% D2 O).
For all experiments, the T2 -filter spin-lock time was 200 ms with a spin-echo delay of 1 ms, the concentration of all chemical compounds was 100 μM, the concentration of FKBP was 50 μM, and the buffer was 50 mM PO4, 100 mM NaCl, pH 6.5 (95% D2 O).
Recombinant human FK binding protein (FKBP) was prepared as described in Logan et al., J. Mol. Biol., 236: 637-648 (1994). […]
In FIG. 1A, a CPMG sequence with a spin-lock time of 200 ms is applied to the compound in the absence of FKBP. […] These differences can be detected either by direct inspection, or by a spectral differencing method in which the spectrum of […] (after the spin-lock, FIG. 1C) is subtracted from the spectrum of the compound in the presence of FKBP (also after the spin-lock, FIG. 1B), resulting in the spectrum shown in FIG. 1D. […]
(§1) All NMR spectra were recorded at 300K on a Bruker AMX500 NMR spectrometer. All spectra were recorded with 256 scans and a proton sweep width of 8333.3 Hz and a proton 90 degree pulse length of 7 μs. […] The NMR data were processed and analyzed on Silicon Graphics computers.

[2] = molecular target: T1, FKBP; assay: Screening for binding using diffusion-filtered one-dimensional proton NMR spectroscopy; settings: FKBP 50 μM, gradients 3 and 48 Gauss/cm, diffusion delay 300 ms, pH 6.5, 300K
Protocol: (§2) For all experiments, low and high gradient strengths correspond to 3 and 48 Gauss/cm, respectively. The high gradient strength was sufficient to eliminate the residual HDO signal in the sample. A diffusion delay time of 300 ms was used, the concentration of all chemical compounds was 100 μM, the concentration of FKBP was 50 μM, and the buffer was 50 mM PO4, 100 mM NaCl, pH 6.5 (95% D2 O).
as §2, with “48 Gauss/cm.” for “48 Gauss/cm,”, “[…]” for “50 mM”
(§3) Recombinant human FK binding protein (FKBP) was prepared as described in Logan et al., J. Mol. Biol., 236: 637-648 (1994).
The pulse sequence employed for exploiting the changes in diffusion rates of potential ligands in the presence of the target molecule that described by S. J. Gibbs and C. S. Johnson, Jr. J. Main. Reson. […]
as §1

[3] = molecular target: T1, FKBP; settings: cited from earlier work
[4] = molecular target: T1, FKBP; assay: KD estimated from absence of observed chemical shift changes in 15N-HSQC spectra of FKBP; type: binding; settings: compounds 2-9; estimated from absence of chemical shift changes in 15N-HSQC spectra at compound concentrations of 1.0 mM
Protocol: as §3
from the absence of observed chemical shift changes in ^15 N--HSQC
spectra of FKBP at compound concentrations of 1.0 mM, as described in the […]

[5] = mixture of compounds 1-9, each 100 μM

T1 sequence (P62942 whole entry): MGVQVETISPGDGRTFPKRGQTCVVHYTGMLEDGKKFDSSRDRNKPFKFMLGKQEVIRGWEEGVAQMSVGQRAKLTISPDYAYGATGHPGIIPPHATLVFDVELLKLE

Row | Structure (SMILES) | pKd [4] | further results
1 | c1ccc(-c2ncc[nH]2)cc1 [Compound 1] | – | difference spectrum (FIG. 2E), T2-filtered, mixture of compounds 1-9 [1, 5]: positive peaks which correspond to the positions of the reonances of compound 1 in the absence of FKBP; ligand signals after the spin lock time in the presence of FKBP ([1]; single compound, T2-filter, compound 100 μM): significantly reduced; difference spectrum (FIG. 5E), diffusion-filtered, mixture of compounds 1-9 [2, 5]: positive resonances at the chemical shifts for compound 1 in the absence of FKBP; ligand binding detected using diffusion filters (FIGS. 4A-4E) ([2]; single compound 100 μM): demonstrated for FKBP binding to compound 1; pKd ([3]; compound 1, obtained from S. Shuker, et al., Science 274:1531-1534 (1996), read-out: KD): 3.70; pKd ([3]; read-out: affinity (binds to FKBP)): 3.70
2 | O=C1CCc2ccccc2O1 [Compound 2] | < 2.00 | –
3 | COc1cccc(O)c1 [Compound 3] | < 2.00 | –
4 | OC(c1ccccc1)c1ccccc1 [Compound 4] | < 2.00 | –
5 | Oc1cccc(O)c1 [Compound 5] | < 2.00 | –
6 | Nc1cc(-c2ccco2)n[nH]1 [Compound 6] | < 2.00 | –
7 | COc1ccc(-c2ccc(C(=O)O)cc2)cc1 [Compound 7] | < 2.00 | –
8 | O=C(O)c1ccc(-c2cccs2)s1 [Compound 8] | < 2.00 | –
9 | O=c1oc2ccccc2c(O)c1-c1ccccc1 [Compound 9] | < 2.00 | –
